Laboratory results published in US5068247A, “2-aminopentanoic acid compounds and their use as immunosuppressants” (priority 1989, dated 1991).
Where two headings read alike, the source gives them in different places.

How the values were obtained:
Assay type in all cases: cell-based
[1] = tested on: IL-3 production in PHA-stimulated mouse spleen cells; experiment: suppression of IL-3 production in PHA-stimulated mouse spleen cells; details: for inhibition at 0.001 µg/mL / inhibition at 0.01 µg/mL / inhibition at 0.1 µg/mL / inhibition at 1 µg/mL: Mus musculus, 24 h, read-out: Suppression
Procedure: (§1) The suppression of IL-2 and IL-3 production in the mitogen-stimulated mouse spleen cells was examined as follows:
(§2) The spleen was resected from 5- to 8-week-old male C3H/HeN mice, and a single cell suspension of spleen cells was prepared by using the RPMI1640 culture medium. After hemolytic treatment, the concentration of the suspension was adjusted to 10^7 cells/ml by using the RPMI1640 culture medium supplemented with 20% FCS, to which 10 μg/ml of phytohemagglutinin (PHA) was added as mitogen. […] After termination of culture, the supernatant was collected and used as the culture supernatant of PHA-stimulated mouse spleen cells.
The IL-3 activity was assayed as follows:
(§3) IL-3-dependent mouse cell line FDC-P2 cells were suspended in the RPMI1640 culture medium supplemented with 10% FCS to the concentration of 2×10^5 cells/ml. One hundred μl of the cell suspension and 100 μl of the two-fold serial dilution of the culture supernatant of PHA-stimulated mouse spleen cells described above were added to a 96-well flat-bottomed microtest plate. […] The IL-3 activity is expressed in U/ml as the dilution at which the absorbancy measured by MTT method was 50% of the maximum.

[2] = tested on: IL-2 production in PHA-stimulated mouse spleen cells; experiment: suppression of IL-2 production in PHA-stimulated mouse spleen cells; details: for inhibition at 0.001 µg/mL / inhibition at 0.01 µg/mL / inhibition at 0.1 µg/mL / inhibition at 1 µg/mL: Mus musculus, 24 h, read-out: Suppression
Procedure: as §1, §2
The IL-2 activity in the culture supernatant of PHA-stimulated mouse spleen cells was assayed as follows:
as §3, with “IL-2 dependent” for “IL-3-dependent”, “CTLL-2” for “FDC-P2”, “30%” for “10%”, “cells” for “cells described above”, “IL-2” for “IL-3”

[3] = tested on: human allogenic MLR (human peripheral blood lymphocytes); experiment: human allogenic MLR-suppressive activity, 3H-thymidine uptake; details: for suppressive activity in human allogenic MLR (in words): 1 to 0.0001 μg/ml
Procedure: The human allogenic MLR-suppressive activity was assayed as follows:
Human peripheral blood lymphocytes obtained by Ficoll-Paque density gradient centrifugation of normal human peripheral blood were suspended in the RPMI1640 culture medium supplemented with 10% FCS, placed in a plastic dish, and cultured in an atmosphere of 5% carbon dioxide and 95% air at 37° C. for 2 hours. After termination of culture, the supernatant after gentle pipetting was collected and centrifuged (1000 rpm, for 5 minutes) to obtain plastic-nonadherent cells. The plastic-nonadherent cells were allowed to pass through a nylon-wool column to give nylon-nonadherent cells, and the concentration of the cell suspension was adjusted to 4×10^6 cells/ml by using the RPMI1640 culture medium supplemented with 10% FCS, and used as the responder cell suspension.
The plastic-adherent cells were removed from the plastic dish by vigorous pipetting after addition of phosphate buffered saline (PBS) supplemented with 5% FCS and 0.02% disodium ethylenediaminetetraacetic acid (EDTA). The plastic-adherent cells were treated with 40 μg/ml of mitomycin C at 37° C. for 60 minutes, washed three times, and suspended to the concentration of 4×10^6 cells/ml in the RPMI1640 culture medium supplemented with 10% FCS. The resultant suspension was used as the stimulator cell suspension.
After termination of culture, 37 KBq/well of ^3 H-thymidine was added, and after 18 hours of culture, the cells were harvested by a cell-harvester. The radioactivity incorporated into the cells was measured by a liquid scintillation counter, which was used as an index of blastogenic response of lymphocytes in human allogenic MLR. The suppression of human allogenic MLR was evaluated by calculating the percent suppression by the following formula. [formula]

[4] = Homo sapiens, Lymphocyte, 0.0001 μg/ml, Donor A/Donor B, read-out: Suppression
[5] = Homo sapiens, Lymphocyte, 0.0001 μg/ml, Donor C/Donor D, read-out: Suppression
[6] = Homo sapiens, Lymphocyte, 0.001 μg/ml, Donor A/Donor B, read-out: Suppression
[7] = Homo sapiens, Lymphocyte, 0.001 μg/ml, Donor C/Donor D, read-out: Suppression
[8] = Homo sapiens, Lymphocyte, 0.01 μg/ml, Donor A/Donor B, read-out: Suppression
[9] = Homo sapiens, Lymphocyte, 0.01 μg/ml, Donor C/Donor D, read-out: Suppression
[10] = Homo sapiens, Lymphocyte, 0.1 μg/ml, Donor A/Donor B, read-out: Suppression
[11] = Homo sapiens, Lymphocyte, 0.1 μg/ml, Donor C/Donor D, read-out: Suppression
[12] = Homo sapiens, Lymphocyte, 1 μg/ml, Donor A/Donor B, read-out: Suppression
[13] = Homo sapiens, Lymphocyte, 1 μg/ml, Donor C/Donor D, read-out: Suppression

Row | SMILES | IL-3 activity ([1]; 0.001 μg/ml) [U/ml] | IL-3 activity ([1]; 0.01 μg/ml) [U/ml] | IL-3 activity ([1]; 0.1 μg/ml) [U/ml] | IL-3 activity ([1]; 1 μg/ml) [U/ml] | inhibition at 0.001 µg/mL ([1]; 0.001 μg/ml) [%] | inhibition at 0.01 µg/mL ([1]; 0.01 μg/ml) [%] | inhibition at 0.1 µg/mL ([1]; 0.1 μg/ml) [%] | inhibition at 1 µg/mL ([1]; 1 μg/ml) [%] | IL-2 activity ([2]; 0.001 μg/ml) [U/ml] | IL-2 activity ([2]; 0.01 μg/ml) [U/ml] | IL-2 activity ([2]; 0.1 μg/ml) [U/ml] | IL-2 activity ([2]; 1 μg/ml) [U/ml] | inhibition at 0.001 µg/mL ([2]; 0.001 μg/ml) [%] | inhibition at 0.01 µg/mL ([2]; 0.01 μg/ml) [%] | inhibition at 0.1 µg/mL ([2]; 0.1 μg/ml) [%] | inhibition at 1 µg/mL ([2]; 1 μg/ml) [%] | 3H-thymidine uptake ([3]; 0.0001 μg/ml, Donor A/Donor B) [cpm] | 3H-thymidine uptake ([3]; 0.0001 μg/ml, Donor C/Donor D) [cpm] | 3H-thymidine uptake ([3]; 0.001 μg/ml, Donor A/Donor B) [cpm] | 3H-thymidine uptake ([3]; 0.001 μg/ml, Donor C/Donor D) [cpm] | also measured
1 | CCCCCCC1(CCCCCC/C=C/C[C@@H](O)[C@H](O)[C@@](N)(CO)C(=O)O)SCCS1 [Example 3] | 42.2 | 45.3 | 42.2 | 27.9 | 0 | 0 | 0 | 24.2 | 14.9 | 13.9 | 12.6 | 8.6 | 0 | 0 | 0 | 28.9 | 10700 | 18512 | 7285 | 17138 | 3H-thymidine uptake ([3]; 0.01 μg/ml, Donor A/Donor B): 7790 cpm; 3H-thymidine uptake ([3]; 0.01 μg/ml, Donor C/Donor D): 15337 cpm; 3H-thymidine uptake ([3]; 0.1 μg/ml, Donor A/Donor B): 6582 cpm; 3H-thymidine uptake ([3]; 0.1 μg/ml, Donor C/Donor D): 8187 cpm; 3H-thymidine uptake ([3]; 1 μg/ml, Donor A/Donor B): 5909 cpm; 3H-thymidine uptake ([3]; 1 μg/ml, Donor C/Donor D): 5143 cpm; suppressive activity in human allogenic MLR (in words) [3]: exhibited suppressive activity in human allogenic MLR in a concentration-dependent manner; inhibition at 0.0001 µg/mL [3, 4]: 10.7%; inhibition at 0.0001 µg/mL [3, 5]: 7.9%; inhibition at 0.001 µg/mL [3, 6]: 41.3%; inhibition at 0.001 µg/mL [3, 7]: 14.9%; inhibition at 0.01 µg/mL [3, 8]: 36.8%; inhibition at 0.01 µg/mL [3, 9]: 24.1%; inhibition at 0.1 µg/mL [3, 10]: 47.6%; inhibition at 0.1 µg/mL [3, 11]: 60.5%; inhibition at 1 µg/mL [3, 12]: 53.7%; inhibition at 1 µg/mL [3, 13]: 76%
2 | CCCCCCCCCCCCC/C=C/C[C@@H](O)[C@H](O)[C@@](N)(CO)C(=O)O [Example 5] | 22.0 | 13.2 | 12.0 | 9.5 | 10.2 | 10.2 | 51 | 62.2 | 8.6 | 4.6 | 4.3 | 2.7 | 36.3 | 65.9 | 68.1 | 80 | 8052 | 15723 | 5363 | 7145 | 3H-thymidine uptake ([3]; 0.00001 μg/ml, Donor A/Donor B): 14723 cpm; 3H-thymidine uptake ([3]; 0.01 μg/ml, Donor A/Donor B): 5042 cpm; 3H-thymidine uptake ([3]; 0.01 μg/ml, Donor C/Donor D): 5878 cpm; 3H-thymidine uptake ([3]; 0.1 μg/ml, Donor A/Donor B): 4660 cpm; 3H-thymidine uptake ([3]; 0.1 μg/ml, Donor C/Donor D): 4703 cpm; 3H-thymidine uptake ([3]; 1 μg/ml, Donor A/Donor B): 5545 cpm; 3H-thymidine uptake ([3]; 1 μg/ml, Donor C/Donor D): 5601 cpm; suppressive activity in human allogenic MLR (in words) [3]: exhibited suppressive activity in human allogenic MLR in a concentration-dependent manner; inhibition at 10 pg/mL ([3]; Homo sapiens, Lymphocyte, 0.00001 μg/ml, Donor A/Donor B, read-out: Suppression): 0%; inhibition at 0.0001 µg/mL [3, 4]: 34.4%; inhibition at 0.0001 µg/mL [3, 5]: 22.1%; inhibition at 0.001 µg/mL [3, 6]: 58.5%; inhibition at 0.001 µg/mL [3, 7]: 65.8%; inhibition at 0.01 µg/mL [3, 8]: 61.4%; inhibition at 0.01 µg/mL [3, 9]: 72.3%; inhibition at 0.1 µg/mL [3, 10]: 64.8%; inhibition at 0.1 µg/mL [3, 11]: 78.3%; inhibition at 1 µg/mL [3, 12]: 56.9%; inhibition at 1 µg/mL [3, 13]: 73.7%
